These results are taken from publication PMC10961359, “Targeting hexokinase 2 for oral cancer therapy: structure-based design and validation of lead compounds” (Frontiers in Pharmacology, 2024).

In the assay the test system is Cal27 cells. Kind of assay: Cell cycle analysis (propidium iodide, flow cytometry), Cal27. The format is cell-based. The note with it: Cal27, 10 and 30 μM, 72 h. Here is the method: FaDu and Cal27 cells were treated with the test compounds (0.5 million cells per treatment) for 72 h, and harvested for cell cycle analysis (Cat# BD340242) and apoptosis analysis (Cat# BD556547) by flow cytometry according to manufacturer’s instructions.
To determine the effect of HK2 inhibition in the progression of the cell cycle, flow cytometric analysis of compound-treated FaDu and Cal27 cells was carried out 72 h post-treatment. Cell cycle analysis is carried out to quantify the DNA content and estimate the percentages of the cell population in different cell cycle phases via propidium iodide staining. […] To determine the apoptosis-inducing activity of HK2 inhibitors, 10 and 30 μM of compounds H2 and H10 treated FaDu and Cal27 cells were stained with annexin V conjugated with FITC, followed by propidium iodide staining.

As for `COc1ccc(CNC(=O)c2nc3ccccc3s2)cc1O` [Compound 14, N-(3-hydroxy-4methoxybenzyl)benzo[d]thiazole-2-carboxamide], the “effect on cell cycle progression” value is recorded as “G0/G1 phase arrest”.
